Data set [1] in a line: in vivo. To be noted: rat, whole blood.
Data set [2] can be described thus: in vivo. The settings on record: rat, brain/blood, 30 mg/kg.

On to `COC1CN(c2nnc(C)c3c(C)n(-c4ccc(Cl)cc4OC(F)(F)F)nc23)C1`, for which the clearance (as a rule, a measure of how efficiently the substance is removed, as volume per time) in “in vivo [1]” was found to be 52 mL/min/kg. The Kp (as a rule, tissue or fluid exposure divided by exposure in the circulation) in “in vivo [2]” was 0.94.

Take `Cc1nnc(N2CCCC2)c2nn(-c3ccc(OCC(F)(F)F)cc3)c(C)c12`: the clearance in “in vivo [1]” was determined as 49 mL/min/kg.

For the origin of these results see ChEMBL document CHEMBL1800009, “Pyrazolopyridazine alpha-2-delta-1 ligands for the treatment of neuropathic pain” (Bioorg Med Chem Lett, 2010).
